Assay [1] concerns the target C-Raf (Y340D/Y341D) (Homo sapiens (Human), UniProt P04049, Y340D/Y341D). As to the kind of experiment: Raf IC50 assay, time-resolved fluorescence energy transfer, C-Raf (Y340D/Y341D). Type of assay: biochemical. The conditions noted are these: 0.1 mM ATP.
Description: The assay was carried out in reactions (10 μL) containing 0.0625 nM B-Raf or 0.5 nM C-Raf, 25 mM Tris pH7.4, 10 mM MgCl2, 0.5 mM EGTA, 0.5 mM Na3VO4, 5 mM beta-glycerophosphate, 0.01% Triton X-100, 2.5 mM DTT, 0.1% BSA, 0.1 mM ATP, 13.7 nM GST-tagged MEK1 (Full-length protein with K97R mutation, recombinant protein purified from bacterial expression system) and 0-5 μM compounds disclosed herein (final concentration of 1% DMSO). The enzyme was incubated with the compounds at room temperature for 60 minutes and the reactions were initiated by the addition of ATP and GST-MEK1. After reaction at room temperature for 60 minutes, an equal volume of stop/detection solution was added according to the manufacture's instruction (CisBio Bioassays). The stop/detection solution contained Eu^3+ cryptate-conjugated anti-phospho MEK1/2 (Ser217/221) rabbit polyclonal antibody and d2-conjugated anti-GST mouse monoclonal antibody in buffer containing 25 mM Tris pH7.4, 400 mM KF, 50 mM EDTA, 0.01% BSA and 0.01% Triton X-100. Plates were sealed and incubated at room temperature for 2 hours, and the TR-FRET signals (ratio of fluorescence emission at 665 nm over emission at 620 nm with excitation at 337 nm wavelength) were recorded on a PHERAstar FS plate reader (BMG Labtech). Phosphorylation of MEK1 led to the binding of anti-phospho-MEK1/2 antibody to GST-MEK1 protein that place fluorescent donor (Eu^3+ crypate) in close proximity to the accepter d2 on the anti-GST antibody, thus resulting in a high degree of fluorescence resonance energy transfer from the donor fluorophore (at 620 nm) to the acceptor fluorophore (at 665 nm). […] The IC50 for each compound was derived from fitting the dose-response % inhibition data to the four-parameter logistic model by Graphpad Prism software.
Assay [2] has as its target B-Raf (V600E) (Homo sapiens (Human), UniProt P15056, V600E). As to the kind of experiment: Raf IC50 assay, time-resolved fluorescence energy transfer, B-Raf (V600E). The conditions noted are these: 0.1 mM ATP; read-out: IC50 (nM) B_Raf^V600E. The assay is classed as biochemical.
Description: The enzyme was incubated with the compounds at room temperature for 60 minutes and the reactions were initiated by the addition of ATP and GST-MEK1. After reaction at room temperature for 60 minutes, an equal volume of stop/detection solution was added according to the manufacture's instruction (CisBio Bioassays). […] The IC50 for each compound was derived from fitting the dose-response % inhibition data to the four-parameter logistic model by Graphpad Prism software.
Assay [3] deals with wild type B-Raf (Homo sapiens (Human), UniProt P15056). As to the kind of experiment: WT B-Raf IC50 assay, time-resolved fluorescence energy transfer. The assay is classed as biochemical. On the procedure:
The IC50 for each compound was calculated by non linear regression by Graphpad Prism software.

The subject of assay [4] is A375. Put plainly: Anti-proliferative activity EC50 assay (CellTiter-Glo) in A375. Type of assay: cell-based. The following applies: Homo sapiens, A-375, 72 h; 3-day exposure; read-out: Cell Proliferation EC50 (nM) A375. How it is done: The growth-inhibitory activity of compounds in A375 and p61-A375, was determined using CellTiter-Glo luminescent cell viability assay (Promega). The 2,000 cells were seeded per well of a 96-well plate to ensure logarithmic growth could occur over the 3 days treatment period. Cells were left to attach for 16 hours, cells were treated in duplicate with a 10-point dilution series. Following a 3-day exposure to compounds disclosed herein, a volume of CellTiter-Glo reagent equal to the volume of cell culture medium present in each well was added. Mixture was mixed on an orbital shaker for 2 minutes to allow cell lysis, followed by 10 minutes incubation at room temperature to allow stabilization of luminescent signal, which corresponded to quantitation of ATP and thus the quantitation of metabolically active cells. Luminescent signal was measured using Pherastar FS reader (BMG Labtech).
EC50 values for growth inhibition were calculated by fitting dose-dependent data to the four-parameter logistic model using GraphPad Prism software.
On the technique in general: Cellular ATP, detected with luciferase, serves as a proxy for viable cell number.

The mark [5] stands for this setting: Km ATP (2.9 μM ATP), read-out: IC50 (nM) B-Raf^WT Km ATP.
Where [6] appears, read: 2.5 mM ATP, read-out: IC50 (nM) B-Raf^WT 2.5 mM ATP.

The structures appear in SMILES notation. Where two headings read alike, the source gives them in different places.

The source of these data is patent US9670203B2 (BeiGene, LTD., priority 2013, dated 2017).

Chain of B-Raf (V600E) (P15056 whole entry V600E): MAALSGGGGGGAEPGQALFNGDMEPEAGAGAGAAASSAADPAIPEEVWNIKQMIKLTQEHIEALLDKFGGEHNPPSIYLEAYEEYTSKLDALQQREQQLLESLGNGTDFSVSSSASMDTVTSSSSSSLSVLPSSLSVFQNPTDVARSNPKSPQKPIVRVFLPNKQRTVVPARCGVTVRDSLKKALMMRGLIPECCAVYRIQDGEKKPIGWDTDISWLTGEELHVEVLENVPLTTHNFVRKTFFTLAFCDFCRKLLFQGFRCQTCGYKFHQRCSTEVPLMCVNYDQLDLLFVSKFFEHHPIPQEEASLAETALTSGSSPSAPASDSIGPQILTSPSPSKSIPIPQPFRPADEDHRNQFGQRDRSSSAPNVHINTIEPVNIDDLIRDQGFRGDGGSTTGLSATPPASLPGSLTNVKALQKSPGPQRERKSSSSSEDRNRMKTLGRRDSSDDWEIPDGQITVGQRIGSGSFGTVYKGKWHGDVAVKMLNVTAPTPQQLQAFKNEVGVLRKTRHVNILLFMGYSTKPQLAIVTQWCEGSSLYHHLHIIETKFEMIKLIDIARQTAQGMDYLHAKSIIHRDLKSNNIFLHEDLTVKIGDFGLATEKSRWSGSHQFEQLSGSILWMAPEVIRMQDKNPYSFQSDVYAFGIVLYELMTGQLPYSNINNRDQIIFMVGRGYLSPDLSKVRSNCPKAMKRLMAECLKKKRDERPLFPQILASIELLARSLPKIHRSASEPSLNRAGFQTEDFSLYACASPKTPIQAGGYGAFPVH
Chain of wild type B-Raf (P15056 whole entry): as the sequence (P15056 whole entry V600E) above, with E600V counted along it
Chain of C-Raf (Y340D/Y341D) (P04049 whole entry Y340D/Y341D): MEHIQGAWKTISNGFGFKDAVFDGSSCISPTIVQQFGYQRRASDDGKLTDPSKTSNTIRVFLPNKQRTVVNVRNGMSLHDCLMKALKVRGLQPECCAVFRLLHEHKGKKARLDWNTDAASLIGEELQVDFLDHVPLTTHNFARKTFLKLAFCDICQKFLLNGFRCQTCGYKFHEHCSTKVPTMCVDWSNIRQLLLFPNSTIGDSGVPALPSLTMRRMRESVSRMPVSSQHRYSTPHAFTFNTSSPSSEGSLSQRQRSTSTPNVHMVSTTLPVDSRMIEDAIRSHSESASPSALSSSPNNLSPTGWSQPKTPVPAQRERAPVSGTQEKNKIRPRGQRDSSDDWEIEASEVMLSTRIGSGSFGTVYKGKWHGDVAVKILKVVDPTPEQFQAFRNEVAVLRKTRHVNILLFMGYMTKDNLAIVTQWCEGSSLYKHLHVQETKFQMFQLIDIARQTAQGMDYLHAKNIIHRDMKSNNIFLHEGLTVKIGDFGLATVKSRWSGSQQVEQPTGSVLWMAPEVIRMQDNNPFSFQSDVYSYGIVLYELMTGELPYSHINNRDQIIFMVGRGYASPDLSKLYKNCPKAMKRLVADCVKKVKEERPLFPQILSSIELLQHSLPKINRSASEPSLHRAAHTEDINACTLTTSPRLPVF

A word on the IC50: it is the concentration that inhibits the measured activity by half. Consider `COc1ccc(CNC(=O)N[C@@H]2[C@H]3Oc4ccc(Oc5ccnc6c5CCC(=O)N6)cc4[C@@H]23)cc1` [Compound 1.3], for which the half-maximal inhibitory concentration (IC50) was 0.54 nM in assay [1] and 40 nM in assay [2].
As to `Cc1cc(Cl)ccc1NC(=O)N[C@@H]1[C@H]2Oc3ccc(Oc4ccnc5c4CCC(=O)N5)cc3[C@@H]12` [Compound 1.7], the IC50 amounted to 2.6 nM in assay [3] (setting [5]), 0.35 nM in assay [1] and 1.1 nM in assay [2].
`O=C1CCc2c(Oc3ccc4c(c3)[C@H]3[C@H](NC(=O)Nc5ccc(Cl)cc5C(F)(F)F)[C@H]3O4)ccnc2N1` [Compound 1.9]: the half-maximal inhibitory concentration (IC50) worked out at 21 nM in assay [3] (setting [5]), 1.6 nM in assay [1] and 9.5 nM in assay [2].
`C#Cc1cccc(NC(=O)N[C@@H]2[C@H]3Oc4ccc(Oc5ccnc6c5CCC(=O)N6)cc4[C@@H]23)c1` [Compound 1.14]: the 50% inhibitory concentration (IC50) came out at 8.5 nM in assay [3] (setting [6]), 2.8 nM in assay [3] (setting [5]) and 1.9 nM in assay [2]. For the same compound, the EC50 in assay [4] was found to be 127 nM.
As to `O=C1CCc2c(Oc3ccc4c(c3)[C@H]3[C@H](NC(=O)Nc5ccc(C(F)(F)F)cc5F)[C@H]3O4)ccnc2N1` [Compound 1.20], the results for the IC50 in assay [3] (setting [5]), in assay [1] and in assay [2] were 23 nM, 2.7 nM and 13 nM, respectively.
As for `O=C1CCc2c(Oc3ccc4c(c3)[C@H]3[C@H](NC(=O)Nc5cc(C(F)(F)F)ccc5F)[C@H]3O4)ccnc2N1` [Compound 1.33], the half-maximal inhibitory concentration (IC50) in assay [3] (setting [6]) was 75 nM; in assay [3] (setting [5]), 19 nM; in assay [2], 9.5 nM. Also, in assay [4], the EC50 worked out at 137 nM.
As for `O=C1CCc2c(Oc3ccc4c(c3)[C@H]3[C@H](NC(=O)Nc5c(F)cc(F)cc5F)[C@H]3O4)ccnc2N1` [Compound 1.40], the IC50 in assay [3] (setting [5]) came to 2 nM; in assay [1], 0.2 nM; in assay [2], 1.6 nM.
Take `O=C1CCc2c(Oc3ccc4c(c3)[C@H]3[C@H](NC(=O)Nc5c(F)ccc(F)c5F)[C@H]3O4)ccnc2N1` [Compound 1.48]: the half-inhibitory concentration (IC50) turned out to be 7.9 nM in assay [3] (setting [6]), 2.5 nM in assay [3] (setting [5]) and 0.74 nM in assay [2]. Further, the EC50 in assay [4] is 686 nM.
As for `CC(C)(N)c1cc(NC(=O)N[C@@H]2[C@H]3Oc4ccc(Oc5ccnc6c5CCC(=O)N6)cc4[C@@H]23)cc(C(F)(F)F)c1` [Compound 1.70, 1-(3-(2-aminopropan-2-yl)-5-(trifluoromethyl)phenyl)-3-((1S,1aS,6bS)-5-((7-oxo-5,6,7,8-tetrahydro-1,8-naphthyridin-4-yl)oxy)-1a,6b-dihydro-1H-cyclopropa[b]benzofuran-1-yl)urea], the IC50 in assay [3] (setting [5]) is 15 nM; in assay [1] it was 0.81 nM; in assay [2], 7.4 nM.
Take `O=C1CCc2c(Oc3ccc4c(c3)[C@@H]3[C@@H](NC(=O)Nc5cccc(C(F)(F)F)c5)[C@@H]3O4)ccnc2N1` [Compound 1.71, 1-((1R,1aR,6bR)-5-((7-oxo-5,6,7,8-tetrahydro-1,8-naphthyridin-4-yl)oxy)-1a,6b-dihydro-1H-cyclopropa[b]benzofuran-1-yl)-3-(3-(trifluoromethyl)phenyl)urea]: the IC50 stood at 0.34 nM in assay [1] and 3 nM in assay [2].
Consider `CC(C)(C)NC(=O)N[C@@H]1[C@H]2Oc3ccc(Oc4ccnc5c4CCC(=O)N5)cc3[C@@H]12` [Compound 1.77], for which the EC50 in assay [4] was found to be 4540 nM. In addition, the IC50 in assay [2] turned out to be 4.5 nM.
For `CCCCCCNC(=O)N[C@@H]1[C@H]2Oc3ccc(Oc4ccnc5c4CCC(=O)N5)cc3[C@@H]12` [Compound 1.78] the same measures were 1900 nM and 0.72 nM.
For `O=C1CCc2c(Oc3ccc4c(c3)[C@H]3[C@H](NC(=O)N[C@H]5CCCc6ccccc65)[C@H]3O4)ccnc2N1` [Compound 1.79], the EC50 in assay [4] came out at 222 nM. The 50% inhibitory concentration (IC50) in assay [1] came out at 0.39 nM; in assay [2], 3.2 nM.
As to `O=C1CCc2c(Oc3ccc4c(c3)[C@H]3[C@H](NC(=O)N[C@@H]5CCCc6ccccc65)[C@H]3O4)ccnc2N1` [Compound 1.80], in assay [4], the EC50 was 132 nM. In addition, the values for the IC50 in assay [1] and in assay [2] were 0.5 nM and 4 nM, respectively.
Consider `O=C1CCc2c(Oc3ccc4c(c3)[C@H]3[C@H](NC(=O)N[C@H]5CCc6ccccc65)[C@H]3O4)ccnc2N1` [Compound 1.81], for which the EC50 in assay [4] came out at 159 nM. Further, the concentration for half-maximal inhibition (IC50) in assay [2] was found to be 2.7 nM.
For `O=C1CCc2c(Oc3ccc4c(c3)[C@H]3[C@H](NC(=O)N[C@@H]5CCc6ccccc65)[C@H]3O4)ccnc2N1` [Compound 1.82] the same measures were 867 nM and 2.4 nM.
For `CC(C)(C)CNC(=O)N[C@@H]1[C@H]2Oc3ccc(Oc4ccnc5c4CCC(=O)N5)cc3[C@@H]12` [Compound 1.83], the EC50 in assay [4] was 291 nM. The half-maximal inhibitory concentration (IC50) in assay [2] worked out at 3 nM.
For `CCCCCCCCNC(=O)N[C@@H]1[C@H]2Oc3ccc(Oc4ccnc5c4CCC(=O)N5)cc3[C@@H]12` [Compound 1.84], the EC50 in assay [4] came out at 4330 nM. Also, the half-inhibitory concentration (IC50) in assay [2] turned out to be 12 nM.
Take `O=C(Nc1cc(F)c(F)cc1F)N[C@@H]1[C@H]2Oc3ccc(Oc4ccnc5c4COC(=O)N5)cc3[C@@H]12` [Compound 2.3, 1-((1S,1aS,6bS)-5-((2-oxo-2,4-dihydro-1H-pyrido[2,3-d][1,3]oxazin-5-yl)oxy)-1a,6b-dihydro-1H-cyclopropa[b]benzofuran-1-yl)-3-(2,4,5-trifluorophenyl)urea]: the EC50 in assay [4] is 190 nM. The half-inhibitory concentration (IC50) in assay [2] amounted to 2.6 nM.
For `O=C1NCc2c(Oc3ccc4c(c3)[C@H]3[C@H](NC(=O)Nc5ccc(F)c(C(F)(F)F)c5)[C@H]3O4)ccnc2N1` [Compound 2.4, 1-(4-fluoro-3-(trifluoromethyl)phenyl)-3-((1S,1aS,6bS)-5-((2-oxo-1,2,3,4-tetrahydropyrido[2,3-d]pyrimidin-5-yl)oxy)-1a,6b-dihydro-1H-cyclopropa[b]benzofuran-1-yl)urea], the EC50 in assay [4] came out at 374 nM. Besides, the IC50 in assay [2] was 11 nM.
Turning to `O=C1NCc2c(Oc3ccc4c(c3)[C@H]3[C@H](NC(=O)Nc5cc(F)c(F)cc5F)[C@H]3O4)ccnc2N1` [Compound 2.5], the EC50 in assay [4] was determined as 769 nM. The half-inhibitory concentration (IC50) in assay [2] was 2.3 nM.
On to `CNC(=O)c1cc(Oc2ccc3c(c2)[C@H]2[C@H](NC(=O)Nc4cccc(C(F)(F)F)c4)[C@H]2O3)ccn1` [Compound 2.6, N-methyl-4-(((1S,1aS,6bS)-1-(3-(3-(trifluoromethyl)phenyl)ureido)-1a,6b-dihydro-1H-cyclopropa[b]benzofuran-5-yl)oxy)picolinamide], for which, in assay [4], the EC50 was found to be 624 nM. In addition, the half-maximal inhibitory concentration (IC50) in assay [2] was determined as 26 nM.
For `CNC(=O)c1cc(Oc2ccc3c(c2)[C@H]2[C@H](NC(=O)Nc4ccc(F)c(C(F)(F)F)c4)[C@H]2O3)ccn1` [Compound 2.7] the same measures were 464 nM and 33 nM.
In the case of `CNC(=O)c1cc(Oc2ccc3c(c2)[C@H]2[C@H](NC(=O)Nc4cc(F)c(F)cc4F)[C@H]2O3)ccn1` [Compound 2.8], the 50% inhibitory concentration (IC50) is 17 nM in assay [3] (setting [5]), 3 nM in assay [1] and 13 nM in assay [2].
With `Nc1cc(Oc2ccc3c(c2)[C@H]2[C@H](NC(=O)Nc4cc(F)c(F)cc4F)[C@H]2O3)ccn1` [Compound 2.15], the EC50 in assay [4] was 10000 nM. For the same compound, the concentration for half-maximal inhibition (IC50) in assay [2] worked out at 18 nM.
